Target: T1, human TRPA1 receptor (Homo sapiens, UniProt O75762)
T1 construct: expressed in transfected cells; host or cells: CHO cells
Assay: Inhibition of AITC induced cellular uptake of radioactive calcium in human TRPA1 expressing CHO cells
Format: cell-based
Settings: read-out: hTRPA1 IC50 values
Experimental: The human IC50 values were measured by the following method:
The inhibition of TRPA1 receptor activation is measured as inhibition of allylisothiocyanate (AITC) induced cellular uptake of radioactive calcium.
Test compound solution is prepared in a suitable solvent.
Human TRPA1 expressing CHO cells are grown in suitable medium. Cells are treated with test compounds followed by addition of AITC.
Cells are washed, lysed and the radioactivity in the lysate is measured in Packard Top count after addition of liquid scintillant.
The concentration response curves for compounds are plotted as a % of maximal response obtained in the absence of test antagonist, and the IC50 values are calculated from such concentration response curve by nonlinear regression analysis using GraphPad PRISM software.

T1 sequence (O75762 whole entry): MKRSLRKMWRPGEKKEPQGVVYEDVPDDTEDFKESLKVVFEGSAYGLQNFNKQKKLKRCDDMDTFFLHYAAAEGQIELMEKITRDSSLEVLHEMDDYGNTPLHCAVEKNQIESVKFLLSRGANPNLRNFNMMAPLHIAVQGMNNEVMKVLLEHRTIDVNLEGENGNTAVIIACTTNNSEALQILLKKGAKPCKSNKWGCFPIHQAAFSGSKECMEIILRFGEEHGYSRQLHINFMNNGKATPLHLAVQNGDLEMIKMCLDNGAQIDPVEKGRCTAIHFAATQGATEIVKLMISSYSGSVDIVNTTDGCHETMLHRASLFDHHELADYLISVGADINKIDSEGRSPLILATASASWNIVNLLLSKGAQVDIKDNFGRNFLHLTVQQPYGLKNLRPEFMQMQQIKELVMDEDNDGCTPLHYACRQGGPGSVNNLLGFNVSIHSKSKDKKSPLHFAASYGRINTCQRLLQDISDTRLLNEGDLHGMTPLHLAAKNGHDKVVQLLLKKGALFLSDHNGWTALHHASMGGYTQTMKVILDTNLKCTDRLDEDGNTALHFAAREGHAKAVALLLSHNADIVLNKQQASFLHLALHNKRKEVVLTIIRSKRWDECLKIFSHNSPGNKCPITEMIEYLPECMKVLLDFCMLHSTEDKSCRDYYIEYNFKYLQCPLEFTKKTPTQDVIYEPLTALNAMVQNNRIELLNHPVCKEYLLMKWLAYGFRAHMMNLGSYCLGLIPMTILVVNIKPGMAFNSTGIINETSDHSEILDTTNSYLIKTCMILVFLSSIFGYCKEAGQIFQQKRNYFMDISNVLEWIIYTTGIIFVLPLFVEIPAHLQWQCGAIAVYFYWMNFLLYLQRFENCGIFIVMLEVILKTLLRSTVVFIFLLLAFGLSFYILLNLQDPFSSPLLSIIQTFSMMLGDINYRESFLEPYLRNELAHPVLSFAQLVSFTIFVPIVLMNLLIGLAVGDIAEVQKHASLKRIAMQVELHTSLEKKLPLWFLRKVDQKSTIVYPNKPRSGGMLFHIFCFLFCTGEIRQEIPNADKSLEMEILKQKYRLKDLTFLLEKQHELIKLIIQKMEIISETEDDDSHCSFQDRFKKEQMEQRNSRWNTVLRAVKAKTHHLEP

| SMILES | IC50 [nM] |
| --- | --- |
| Cn1c(=O)c2c(CC(=O)Nc3ccn(-c4cccc(C(F)(F)F)c4)n3)cccc2n(C)c1=O [Compound 16] | 58.9 |
| CC(C)Cc1ccc(-c2csc(NC(=O)Cc3cccc4c3c(=O)n(C)c(=O)n4C)n2)cc1 [Compound 23] | 43.9 |
| Cn1c(=O)c2c(ccn2CC(=O)Nc2nc(-c3cc(Cl)c(OCCC(F)(F)F)c(Cl)c3)cs2)n(C)c1=O [Compound 35] | 18 |
| Cn1c(=O)c2c(ccn2CC(=O)Nc2nc(-c3cc(F)c(OCC(F)(F)F)c(F)c3)cs2)n(C)c1=O [Compound 37] | 12.3 |
| Cn1c(=O)c2c(cnn2CC(=O)Nc2nc(-c3cc(Cl)c(OCC(C)(C)C)c(Cl)c3)cs2)n(C)c1=O [Compound 44] | 8.36 |
| Cn1c(=O)c2c(CC(=O)Nc3nc(-c4ccc(C(F)(F)F)c(F)c4)cs3)csc2n(C)c1=O [Compound 51] | 4.84 |
| Cn1c(=O)c2c(CC(=O)Nc3nc(-c4ccc(F)c(C(F)(F)F)c4F)cs3)csc2n(C)c1=O [Compound 52] | 2.49 |
| Cn1c(=O)c2c(CC(=O)Nc3nc(-c4cc(F)c(OCC(F)(F)F)c(F)c4)cs3)coc2n(C)c1=O [Compound 56] | 3.38 |
| Cc1oc2c(c1CC(=O)Nc1nc(-c3ccc(C(F)(F)F)c(F)c3)cs1)c(=O)n(C)c(=O)n2C [Compound 65] | 6.65 |
| Cc1oc2c(c1CC(=O)Nc1nc(-c3ccc(OC(F)(F)F)c(Cl)c3)cs1)c(=O)n(C)c(=O)n2C [Compound 73] | 8.54 |
| Cn1c(=O)c2c(CC(=O)Nc3nc(-c4ccc(C(F)(F)F)c(F)c4F)cs3)nsc2n(C)c1=O [Compound 84] | 5.35 |
| Cn1c(=O)c2c(CC(=O)Nc3nc(-c4ccc(OC(F)(F)F)c(F)c4)cs3)nccc2n(C)c1=O [Compound 88] | 11.4 |
| COCCCOc1cccc(C2NC(=S)NC3=C2C(=O)c2ccccc23)c1 (centres unmarked) [Compound 90] | 5.61 |
| Cn1c(=O)c2c(ncn2CC(=O)Nc2nc(-c3ccc(Br)cc3)cs2)n(C)c1=O [Compound 91] | 451 |
| Cn1c(=O)c2c(CC(=O)Nc3nc(-c4ccc(F)c(C(F)(F)F)c4F)cs3)onc2n(C)c1=O [Compound 92] | 17.1 |
| Cc1oc2c(c1CC(=O)/N=c1\scc(-c3ccc(OC(F)(F)F)c(Cl)c3)n1COC(=O)[C@@H](N)C(C)C)c(=O)n(C)c(=O)n2C [Compound 95] | 88.5 |
| Cc1oc2c(c1CC(=O)N=c1scc(-c3ccc(OC(F)(F)F)c(Cl)c3)n1COC(=O)CN)c(=O)n(C)c(=O)n2C [Compound 98] | 54.3 |

Source: patent US20140107113A1, “PHARMACEUTICAL COMPOSITION COMPRISING A TRPA1 ANTAGONIST AND A BETA-2 AGONIST” (GLENMARK PHARMACEUTICALS SA, priority 2011, published 2014)
